In US9604989B2, “Imidazopyridazines as Akt kinase inhibitors” (Bayer Intellectual Property GmbH, priority 2011, dated 2017):

Legend:
phospho-AKT at S473 = test: Cellular p-AKT1/2/3-S473 assay in KPL-4 cells; assay type: cell-based; settings: Homo sapiens, KPL4; KPL-4 breast tumour cell line, compound treatment 2 hours; read-out: pAKT-S473 median IC50
[1] = system: MCF-7 breast tumour cell line; test: Tumor cell proliferation assay (CellTiter-Glo), MCF-7; assay type: cell-based; settings: Homo sapiens, MCF7, 72 h drug exposure, read-out: MCF-7 median IC50
Description: (§1) Biological Assay 4.0: Tumor Cell Proliferation Assays
(§2) Compounds were tested in a cell-based assay that measures the capacity of the compounds to inhibit tumour cell proliferation following a 72 h drug exposure. Cell viability is determined using CellTiter-Glow® (CTG, Promega, cat#G7571/2/3). The CellTiter-Glo® Luminescent Cell Viability Assay is a homogeneous method to determine the number of viable cells in culture.
(§3) Detection is based on using the luciferase reaction to measure the amount of ATP from viable cells. The amount of ATP in cells correlates with cell viability. Within minutes after a loss of membrane integrity, cells lose the ability to synthesize ATP, and endogenous ATPases destroy any remaining ATP; thus the levels of ATP fall precipitously.
(§4) For each cell line assayed, cells were plated onto a separate plate for determination of fluorescence at t=0 hour and t=72 hour time points. Following overnight incubation at 37° C., chemiluminescence values for the t=0 samples were determined after adding 10 μl medium and 100 μl CTG solution according to manufacture protocol. Plates for the t=72 hour time points were treated with compounds diluted into growth medium at ten times final concentration added in 10 μL to the cell culture plate. Cells were then incubated for 72 hours at 37° C. Chemiluminescence values for the t=72 hour samples were determined. […] Experiments were controlled using a reference compound as standard.

[2] = target: His-tagged human recombinant kinase full-length Akt1 (Homo sapiens (Human), UniProt P31749); test: Akt1 kinase assay (Akt1 TR-FRET assay); assay type: biochemical; settings: 10 μM ATP, 60 min at 22° C., read-out: Akt1 median IC50
Sequence of His-tagged human recombinant kinase full-length Akt1 (P31749 whole entry): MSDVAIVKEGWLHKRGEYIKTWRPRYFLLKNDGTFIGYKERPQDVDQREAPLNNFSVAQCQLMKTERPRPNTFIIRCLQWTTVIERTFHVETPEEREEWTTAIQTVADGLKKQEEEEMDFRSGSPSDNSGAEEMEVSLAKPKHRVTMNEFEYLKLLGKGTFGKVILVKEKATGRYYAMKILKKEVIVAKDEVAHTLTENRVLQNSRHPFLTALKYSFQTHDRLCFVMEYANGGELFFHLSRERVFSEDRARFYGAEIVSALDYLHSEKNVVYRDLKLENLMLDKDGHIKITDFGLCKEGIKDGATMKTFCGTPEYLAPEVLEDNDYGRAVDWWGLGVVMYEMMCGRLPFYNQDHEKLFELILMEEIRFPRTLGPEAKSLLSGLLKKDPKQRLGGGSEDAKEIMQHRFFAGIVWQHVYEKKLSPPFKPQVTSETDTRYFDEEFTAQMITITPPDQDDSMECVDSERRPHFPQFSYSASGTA
Excerpt: Biological Assay 1.0: Akt1 Kinase Assay
Akt1 inhibitory activity of compounds of the present invention was quantified employing the Akt1 TR-FRET assay as described in the following paragraphs.
His-tagged human recombinant kinase full-length Akt1 expressed in insect cells was purchased form Invitrogen (part number PV 3599). As substrate for the kinase reaction the biotinylated peptide biotin-Ahx-[sequence] (C-terminus in amide form) was used which can be purchased e.g. from the company Biosynthan GmbH (Berlin-Buch, Germany).
For the assay 50 nl of a 100 fold concentrated solution of the test compound in DMSO was pipetted into a black low volume 384 well microtiter plate (Greiner Bio-One, Frickenhausen, Germany), 2 μl of a solution of Akt1 in assay buffer [50 mM TRIS/HCl pH 7.5, 5 mM MgCl2, 1 mM dithiothreitol, 0.02% (v/v) Triton X-100 (Sigma)] were added and the mixture was incubated for 15 min at 22° C. to allow pre-binding of the test compounds to the enzyme before the start of the kinase reaction. Then the kinase reaction was started by the addition of 3 μl of a solution of adenosine-tri-phosphate (ATP, 16.7 μM=>final conc. in the 5 μl assay volume is 10 μM) and substrate (1.67 μM=>final conc. in the 5 μl assay volume is 1 μM) in assay buffer and the resulting mixture was incubated for a reaction time of 60 min at 22° C. The concentration of Akt1 in the assay was adjusted depending of the activity of the enzyme lot and was chosen appropriate to have the assay in the linear range, typical enzyme concentrations were in the range of about 0.05 ng/μl (final conc. in the 5 μl assay volume). The reaction was stopped by the addition of 5 μl of a solution of HTRF detection reagents (200 nM streptavidine-XL665 [Cisbio] and 1.5 nM anti-phosho-Serine antibody [Millipore, cat. #35-001] and 0.75 nM LANCE Eu-W 1024 labeled anti-mouse IgG antibody [Perkin Elmer]) in an aqueous EDTA-solution (100 mM EDTA, 0.1% (w/v) bovine serum albumin in 50 mM HEPES/NaOH pH 7.5). The resulting mixture was incubated 1 h at 22° C. to allow the binding of the biotinylated phosphorylated peptide to the streptavidine-XL665 and the antibodies. Subsequently the amount of phosphorylated substrate was evaluated by measurement of the resonance energy transfer from the anti-mouse-IgG-Eu-Chelate to the streptavidine-XL665. Therefore, the fluorescence emissions at 620 nm and 665 nm after excitation at 350 nm was measured in a HTRF reader, e.g. a Rubystar (BMG Labtechnologies, Offenburg, Germany) or a Viewlux (Perkin-Elmer). The ratio of the emissions at 665 nm and at 622 nm was taken as the measure for the amount of phosphorylated substrate.

p-4E-BP1 at T70 = test: Cellular p-4E-BP1-T70 assay in KPL-4 cells; assay type: cell-based; settings: Homo sapiens, KPL4; KPL-4 breast tumour cell line, compound treatment 2 hours; read-out: P4EBP1-T70 median IC50
Description: The molecular mechanism of action was investigated in a set of experiments to assess the inhibition of the PI3K-AKT-mTOR pathway in responsive cell lines such as KPL-4 breast tumour cell line (PIK3CA^H1047R, HER2^O/E and hormone independent). The phospho-substrates of PI3K-AKT-mTOR axis were used as the read-outs to reflect pathway inhibition. Cells were seeded at 60-80% confluency per well in 96-well cell culture plates. After overnight incubation at 37° C. 5% CO2, cells were treated with compounds and vehicle at 37° C. for 2 hours. […] All measurements where at least done in duplicates and confirmed by independent repetition.

[3] = system: KPL-4 breast cancer cell line; test: Tumor cell proliferation assay (CellTiter-Glo), KPL-4; assay type: cell-based; settings: Homo sapiens, KPL4, 72 h drug exposure, read-out: KLP-4 median IC50
Description: as §1, §2, §3, §4

[4] = target: His-tagged human recombinant kinase full-length Akt2 (Homo sapiens (Human), UniProt P31751); test: Akt2 kinase assay (Akt2 TR-FRET assay); assay type: biochemical; settings: 10 μM ATP, 60 min at 22° C., read-out: Akt2 median IC50
Sequence of His-tagged human recombinant kinase full-length Akt2 (P31751 whole entry): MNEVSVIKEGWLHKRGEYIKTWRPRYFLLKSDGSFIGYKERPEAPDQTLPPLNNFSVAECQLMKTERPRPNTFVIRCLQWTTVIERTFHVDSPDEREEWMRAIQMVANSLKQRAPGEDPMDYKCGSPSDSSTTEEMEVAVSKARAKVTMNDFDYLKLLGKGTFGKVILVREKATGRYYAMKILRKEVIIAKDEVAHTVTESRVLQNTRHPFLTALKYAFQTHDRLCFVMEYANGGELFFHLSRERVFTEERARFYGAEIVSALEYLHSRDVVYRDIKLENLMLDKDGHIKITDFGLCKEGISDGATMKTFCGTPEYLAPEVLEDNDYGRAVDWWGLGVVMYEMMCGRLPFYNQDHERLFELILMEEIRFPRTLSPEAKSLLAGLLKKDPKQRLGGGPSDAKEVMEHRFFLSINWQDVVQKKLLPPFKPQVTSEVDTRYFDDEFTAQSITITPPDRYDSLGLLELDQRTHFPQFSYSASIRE
Excerpt: Akt2 inhibitory activity of compounds of the present invention was quantified employing the Akt2 TR-FRET assay as described in the following paragraphs.
His-tagged human recombinant kinase full-length Akt2 expressed in insect cells and activated by PDK1 was purchased form Invitrogen (part number PV 3975). As substrate for the kinase reaction the biotinylated peptide biotin-Ahx-[sequence] (C-terminus in amide form) was used which can be purchased e.g. from the company Biosynthan GmbH (Berlin-Buch, Germany). For the assay 50 nl of a 100 fold concentrated solution of the test compound in DMSO was pipetted into a black low volume 384 well microtiter plate (Greiner Bio-One, Frickenhausen, Germany), 2 μl of a solution of Akt2 in assay buffer [50 mM TRIS/HCl pH 7.5, 5 mM MgCl2, 1 mM dithiothreitol, 0.02% (v/v) Triton X-100 (Sigma)] were added and the mixture was incubated for 15 min at 22° C. to allow pre-binding of the test compounds to the enzyme before the start of the kinase reaction. Then the kinase reaction was started by the addition of 3 μl of a solution of adenosine-tri-phosphate (ATP, 16.7 μM=>final conc. in the 5 μl assay volume is 10 μM) and substrate (1.67 μM=>final conc. in the 5 μl assay volume is 1 μM) in assay buffer and the resulting mixture was incubated for a reaction time of 60 min at 22° C. The concentration of Akt2 in the assay was adjusted depending of the activity of the enzyme lot and was chosen appropriate to have the assay in the linear range, typical enzyme concentrations were in the range of about 0.2 ng/μl (final conc. in the 5 μl assay volume). The reaction was stopped by the addition of 5 μl of a solution of HTRF detection reagents (200 nM streptavidine-XL665 [Cisbio] and 1.5 nM anti-phosho-Serine antibody [Millipore, cat. #35-001] and 0.75 nM LANCE Eu-W 1024 labeled anti-mouse IgG antibody [Perkin Elmer]) in an aqueous EDTA-solution (100 mM EDTA, 0.1% (w/v) bovine serum albumin in 50 mM HEPES/NaOH pH 7.5). The resulting mixture was incubated 1 h at 22° C. to allow the binding of the biotinylated phosphorylated peptide to the streptavidine-XL665 and the antibodies. Subsequently the amount of phosphorylated substrate was evaluated by measurement of the resonance energy transfer from the anti-mouse-IgG-Eu-Chelate to the streptavidine-XL665. Therefore, the fluorescence emissions at 620 nm and 665 nm after excitation at 350 nm was measured in a TR-FRET reader, e.g. a Rubystar (BMG Labtechnologies, Offenburg, Germany) or a Viewlux (Perkin-Elmer). The ratio of the emissions at 665 nm and at 622 nm was taken as the measure for the amount of phosphorylated substrate.

Row | IC50 (phospho-AKT at S473) | IC50 [1] | IC50 [2] | IC50 (p-4E-BP1 at T70) | IC50 [3] | IC50 [4] | Structure (SMILES)
1 | 0.57 µM | 1.1 µM | 0.0066 µM | 0.36 µM | 8.2 µM | 0.016 µM | COC(=O)c1cc(-c2cc[nH]n2)c2nc(-c3ccc(C4(N)CCC4)cc3)c(-c3ccccc3)n2n1 [Example 56, Methyl 2-[4-(1-aminocyclobutyl)phenyl]-3-phenyl-8-(1H-pyrazol-3-yl)-imidazo[1,2-b]pyridazine-6-carboxylate]
2 | 0.081 µM | 2 µM | 0.58 µM | 2.5 µM | 3.2 µM | 0.51 µM | CC(=O)Nc1ccc2nc(-c3ccc(C4(N)CCC4)cc3)c(-c3ccccc3)n2n1 [Example 37, N-{2-[4-(1-Aminocyclobutyl)phenyl]-3-phenylimidazo[1,2-b]pyridazin-6-yl}acetamide]
